# Measured values reported in patent US11439657B2, “Cancer stem cell growth inhibitor using miRNA” (CancerStem Tech Inc., priority 2017, dated 2022).
# Entries after “also recorded” stand apart in the source; their conditions may differ.
# Legend:
# [1] = tested on: human gastric cancer cells (AGS line); assay: Antitumor effect on human gastric cancer cells, cell count after transfection; type: cell-based; details: 10 pmol/well, 48 hours, FIG. 10; for antitumor effect: positive control hsa-miR-34a
# Procedure: (§1) A cell suspension prepared by suspending human pancreatic cancer cells (Bxpc3 line) in D-MEM medium (containing 10% by volume FBS) was seeded in each well of a 24-well plate at 3×10^3 cells/well, followed by culture at 37° C. overnight. Thereafter, according to the lipofectamin 2000 protocol, each miRNA was transfected at 10 pmol/well, and 48 hours later, the cells were counted. In addition, tests were also conducted under the same condition on a case where the miRNA was not introduced (untreated group), a case where hsa-miR-34a (SEQ ID NO: 8) was used (positive control) in place of the miRNA, and a case where a control miRNA (SEQ ID NO: 9) was used (control miRNA, negative control) in place of the selected miRNA.
# As to hsa-miR-136-5p, hsa-miR-3065-3p and hsa-miR-181a-5p, evaluation was performed of the antitumor effect on human gastric cancer cells. The specific test method is the same as that for Test Example 4 except that human gastric cancer cells (AGS line) were used as cancer cells.
# [2] = tested on: human esophageal cancer cells (TE11 line); assay: Antitumor effect on human esophageal cancer cells, cell count after transfection; type: cell-based; details: 10 pmol/well, FIG. 12; for antitumor effect: 72 hours, positive control hsa-miR-34a; for proliferation inhibitory effect on esophageal cancer cells: cells counted 72 hours after transfection
# Procedure: as §1
# As to hsa-miR-136-5p, hsa-miR-3065-3p, hsa-miR-4727-5p, hsa-miR-378g and hsa-miR-181a-5p, evaluation was performed of the antitumor effect on human esophageal cancer cells. The specific test method is the same as that for Test Example 4 except that human esophageal cancer cells (TE11 line) were used as cancer cells, and that the cells were counted 72 hours after transfection.
# [3] = tested on: cancer stem cell population (ZsGreen+) established from pancreatic cancer cell line Panc-1; assay: Screening of miRNAs: cell count (cell viability) of the cancer stem cell population after transfection; type: cell-based, human; details: miRNA 10 pmol/well, lipofectamin 2000, cells counted 48 and 72 hours later, FIG. 4
# Excerpt: A cancer stem cell line was established by transducing a pancreatic cancer cell line (Panc-1) with an ODC (Ornithine Decarboxylase)-Degron system capable of visualizing low metabolism that is a property of cancer stem cells using a retrovirus vector (FIG. 1a). The base sequence coding the used ODC-Degron is as set forth in SEQ ID NO: 10. Usually, cancer stem cells are so 26s proteasome hypometabolic that they cannot degrade the introduced fluorescently labeled Ornithine Decarboxylase Degron, and thus the fluorescent protein sufficiently accumulates to provide visualization.
# However, even when the ODC-degron system was introduced into the pancreatic cancer cell line Panc-1, only about 0.06% cells emitting fluorescence (green) were obtained in total. With such a small number of cancer stem cells, a series of experiments including drug screening cannot be performed. Accordingly, further enrichment of cancer stem cells provided a cancer stem cell population in which cells having observed fluorescent coloring (i.e., cancer stem cells) accounted for about 81.18% in total (FIG. 1b). The obtained cancer stem cell population was designated as ZsGreen+.
# A cell suspension prepared by suspending the cancer stem cell population (ZsGreen+) in a medium (DMEM medium containing 10% by volume FBS) was seeded in each well of a 24-well plate at a density of 5000 to 10000 cells/well, followed by culture at 37° C. overnight. Thereafter, according to the lipofectamin 2000 protocol, each miRNA was transfected at 10 pmol/well, and 48 hours and 72 hours later, the cells were counted. In addition, tests were also conducted under the same condition on a case where the miRNA was not introduced (untreated group, control), a case where has-miR-34a (SEQ ID NO: 8) was used (positive control) in place of the selected miRNA, and a case where a control miRNA (SEQ ID NO: 9) was used (NC1, negative control) in place of the selected miRNA. In addition, for comparison, the non-cancer stem cell population (ZsGreen−) was used in place of the cancer stem cell population (ZsGreen+) to conduct tests under the same condition.
# The ratio of the number of cells under each condition to the number of control cells into which the miRNA was not introduced (cell viability, %) was determined.
# [4] = tested on: human large bowel cancer cells (DLD1 line); assay: Infiltration assay (Matrigel Invasion Chambers); type: cell-based; details: 20 pmol/cell culture insert, 48 hours, versus control miRNA, FIG. 15
# Procedure: The infiltration assay was performed using BD Matrigel Invasion Chambers, 12 Chambers per 24-Well Plate (BD Biosciences). First, […] of RPMI medium (containing 10% by volume FBS) was added in the wells of a companion plate. Furthermore, in a cell culture insert having a Matrigel basement membrane, a mixture of human large bowel cancer cells (DLD1 line) at 1×10^6 cells/well, lipofectamin RNAiMAX Regent (final concentration in the cell culture insert: 2 μL/ml) and hsa-miR-3065-3p (final concentration in the cell culture insert: 20 pmol/cell culture insert) was added, followed by culture for 48 hours. Thereafter, the cell culture insert was removed, and cells adhering to the outside of the Matrigel basement membrane were fixed with formalin and then stained with hematoxylin to count the cells migrated to the outside of the Matrigel basement membrane. In addition, tests were also performed under the same condition on a case where a control miRNA (SEQ ID NO: 9) was used (control miRNA, negative control) in place of hsa-miR-3065-3p.
# [5] = tested on: human large bowel cancer cells (HT29 line); assay: Drug sensitivity in combination with oxaliplatin (cell viability); type: cell-based; details: miRNA 50 nM, oxaliplatin 0-128 μM for 72 hours, compared to only oxaliplatin and to control plus oxaliplatin, FIG. 16
# Procedure: A cell suspension prepared by suspending human large bowel cancer cells (HT29 line) in RPMI medium was seeded in each well of a 6-well plate at 3×10^5 cells/well, and a mixture of lipofectamin RNAiMAX Regent (final concentration in well: 0.03 μL/well) and hsa-miR-3065-3p (final concentration in well: 50 nM) was further added, followed by culture for 1 day. Then, cells were recovered and suspended in RPMI medium, and were seeded in each well of a 96-well plate at 3×10^3 cells/well, followed by culture for 2 days. Thereafter, oxaliplatin was added to each well at 0, 2, 4, 8, 16, 32, 64 or 128 μM, followed by additional culture for 72 hours. After culture, living cells in each well were counted by GloMax-Multi Detection System (Promega Corporation). When the number of living cells under a condition where oxaliplatin was not added was 100%, the ratio of the number of living cells under each condition (cell viability, %) was determined. In addition, tests were also performed under the same condition on a case where a control miRNA (SEQ ID NO: 9) was used (control miRNA, negative control) in place of hsa-miR-3065-3p, and on a case where no miRNA was added.
Substance,proliferation inhibitory effect on gastric cancer cells [1],antitumor effect [1],antitumor effect [2],proliferation inhibitory effect on esophageal cancer cells [2],proliferation inhibitory effect on cancer stem cells (cell viability) [3],migration ability of human large bowel cancer cells (cells migrated to the outside of the Matrigel basement membrane) [4],number of living cells (cell viability) on treatment with both hsa-miR-3065-3p and oxaliplatin [5]
"hsa-miR-136-5p: human-derived miR-136-5p; base sequence set forth in SEQ ID NO: 1 as mature miRNA (ACUCCAUUUGUUUUGAUGAUGGA; listed as RNA, chemistry not given here; listed as Homo sapiens)",strong proliferation inhibitory effect,much better antitumor effect than that of hsa-miR-34a; also recorded: particularly remarkable antitumor effect,much better antitumor effect than that of hsa-miR-34a,strong proliferation inhibitory effect,effectively suppress proliferation of cancer stem cells; also recorded: prominent proliferation inhibitory effect,,
"hsa-miR-3065-3p: human-derived miR-3065-3p; base sequence set forth in SEQ ID NO: 2 as mature miRNA (UCAGCACCAGGAUAUUGUUGGAG; listed as RNA, chemistry not given here; listed as Homo sapiens)",strong proliferation inhibitory effect,much better antitumor effect than that of hsa-miR-34a,much better antitumor effect than that of hsa-miR-34a; also recorded: particularly remarkable antitumor effect,strong proliferation inhibitory effect,effectively suppress proliferation of cancer stem cells; also recorded: prominent proliferation inhibitory effect,able to inhibit the migration ability,significantly reduce the number of living cells
